Experimental findings from patent publication US8889876B2, “Histone deacetylase inhibitors and uses thereof” (Jiangsu Hengyi Pharmaceutical Co., Ltd., priority 2008, dated 2014) are described below.

Usually inhibition stands for the relative decrease from the control value, in per cent.

Common to all, as to format: cell-based
Test [1] deals with Colo320 human rectal cancer cells. Put plainly: CCK-8 proliferation inhibition, Colo320. The note with it: Homo sapiens, COLO 320, CCK-8 method; for inhibition at 10 µM: compound concentration 10 μM; for inhibition at 100 µM: compound concentration 100 μM. As for the experimental part:
(§1) Detecting the inhibition rate of the compound concentrations of 100 μM and 10 μM to Hut78 T-cell Leukemia cell, Jurkat E6-1 human T-cell lymphoma, PANC-1 human pancreatic cancer cells, A549 human lung cancer cells, K562 human chronic myeloid leukemia cells, Hep3B2.1-7 human liver cancer cells, MDA-MB-435s human breast cancer cells, Colo320 human rectal cancer cells and PC-3 human prostate cancer using CCK-8 method.
For orientation: Formazan colour is commonly taken as a measure of viable cells.

The subject of test [2] is A549 human lung cancer cells. Put plainly: CCK-8 proliferation inhibition, A549. The settings on record: Homo sapiens, A549, CCK-8 method; for inhibition at 10 µM: compound concentration 10 μM; for inhibition at 100 µM: compound concentration 100 μM. The procedure: as §1
In test [3] the test system is Jurkat E6-1 human T-cell lymphoma. Description: CCK-8 proliferation inhibition, Jurkat E6-1. The settings on record: Homo sapiens; for inhibition at 10 µM: Jurkat E6.1, 10 μM; for inhibition at 100 µM: Jurkat E6.1, 100 μM. The procedure: as §1
Test [4] concerns PANC-1 human pancreatic cancer cells. Put plainly: CCK-8 proliferation inhibition, PANC-1. The settings on record: Homo sapiens; for inhibition at 10 µM: PANC-1, 10 μM; for inhibition at 100 µM: PANC-1, 100 μM. The procedure:
as §1

Test [5] deals with K562 human chronic myeloid leukemia cells. Description: CCK-8 proliferation inhibition, K562. The note with it: Homo sapiens; for inhibition at 10 µM: K562, 10 μM; for inhibition at 100 µM: K562, 100 μM. The procedure: as §1
For test [6], the system named is Hep3B2.1-7 human liver cancer cells. Put plainly: CCK-8 proliferation inhibition, Hep3B2.1-7. The settings on record: Homo sapiens, Hep3B, CCK-8 method; for inhibition at 10 µM: compound concentration 10 μM; for inhibition at 100 µM: compound concentration 100 μM. The procedure: as §1
For test [7], the system named is Hut78 T-cell Leukemia cell. Put plainly: CCK-8 proliferation inhibition, Hut78. The settings on record: Homo sapiens, read-out: Hut-78 (inhibition %); for inhibition at 10 µM: HuT78, 10 μM; for inhibition at 100 µM: HuT78, 100 μM. As for the experimental part: as §1
Test [8] deals with MDA-MB-435s human breast cancer cells. Put plainly: CCK-8 proliferation inhibition, MDA-MB-435s. The settings on record: Homo sapiens, MDA-MB-435S, CCK-8 method; for inhibition at 10 µM: compound concentration 10 μM; for inhibition at 100 µM: compound concentration 100 μM. The procedure: as §1
The subject of test [9] is PC-3 human prostate cancer. Description: CCK-8 proliferation inhibition, PC-3. The note with it: Homo sapiens, CCK-8 method; for inhibition at 10 µM: compound concentration 10 μM; for inhibition at 100 µM: compound concentration 100 μM. The procedure: as §1

Structures are written as SMILES.

For `COc1ccc(/C=C/C(=O)NCc2ccc(C(=O)Nc3cccnc3N)cc2)cc1` [V-29, N-(2-amino-3-pyridyl)-4-[(4-methoxycinnamoyl)aminomethyl]benzamide], the inhibition at 10 µM is 9.5% in test [1]; 0% in test [2]; 49.3% in test [3]; 12.5% in [4]; 52.2% in test [5]; 11% in test [6]. For the same compound, the inhibition at 10 µM in test [7] was 45.2%; in [8], 17%; in test [9], 40.1%. Further, the inhibition at 100 µM is 45.9% in [1]; 41.3% in test [2]; 89.7% in [3]; 33.3% in [4]; 85.2% in test [5]; 68.1% in test [6]. In addition, the inhibition at 100 µM is 75.6% in test [7], 57.8% in test [8] and 64.2% in test [9].
As for `Nc1ncccc1NC(=O)c1ccc(CNC(=O)/C=C/c2ccc(F)cc2)cc1` [V-40, N-(2-amino-3-pyridyl)-4-[(4-fluorocinnamoyl)aminomethyl]benzamide], the inhibition at 10 µM in [1] is 10%; in [2], 2.8%; in [3], 31.6%; in test [4] it was 4.4%; in [5], 45%; in test [6] it was -5%. For the same compound, the inhibition at 10 µM in [7] came to 29.2%; in [8] it was 28.5%; in test [9], 6.3%. In addition, the inhibition at 100 µM in test [1] came to 32.3%; in test [2], 47.7%; in test [3], 87.6%; in [4] it was 9.5%; in test [5], 75%; in test [6] it was 51.7%. For the same compound, the inhibition at 100 µM in [7] is 69.3%; in [8], 76.3%; in test [9], 38.8%.
As for `Nc1cnccc1NC(=O)c1ccc(CNC(=O)/C=C/c2cccnc2)cc1` [V-43], the inhibition at 10 µM in test [1] was 19.1%; in test [2] it was 41.2%; in [3], 69.1%; in test [4], 3.1%; in test [5], 13.8%; in test [6], 22.5%. The inhibition at 10 µM is 25.7% in [7], 18.8% in test [8] and 88% in [9]. The inhibition at 100 µM in test [1] was 59.4%; in test [2], 85.5%; in test [3], 96.8%; in test [4], 35.9%; in test [5] it was 60.8%; in test [6], 60.5%. The inhibition at 100 µM was determined as 49.6% in [7], 86.4% in [8] and 94.5% in [9].
For `Nc1ncccc1NC(=O)c1ccc(CNC(=O)/C=C/c2ccc3ccccc3c2)cc1` [V-46, N-(2-amino-3-pyridyl)-4-(2-naphthylacryloylaminomethyl)benzamide], the inhibition at 10 µM in test [1] was found to be 13.7%; in [2], 7.7%; in [3] it was 14.8%; in test [4], 8.1%; in test [5] it was 27.3%; in test [6], 17.5%. For the same compound, the inhibition at 10 µM in [7] was 16.4%; in test [8], 16.4%; in [9], -1.7%. The inhibition at 100 µM in test [1] was -9%; in [2] it was 4.1%; in test [3], 1.9%; in [4], 0.4%; in [5], 18.9%; in test [6], -5%. The inhibition at 100 µM was 13.4% in test [7], 4.1% in [8] and -2.4% in [9].
Regarding `Nc1ncccc1NC(=O)c1ccc(CNC(=O)CCc2ccccc2)cc1` [V-48, N-(2-amino-3-pyridyl)-4-[(3-phenylpropionyl)aminomethyl]benzamide], the inhibition at 10 µM is 2.9% in test [1]; 3.9% in [2]; 9.7% in test [3]; -2.2% in test [4]; 20% in test [5]; -14% in [6]. Moreover, the inhibition at 10 µM in test [7] was -0.4%; in [8], 10%; in [9], -16.4%. Besides, the inhibition at 100 µM is 17.9% in test [1]; 9.8% in test [2]; 61.9% in [3]; -1.8% in test [4]; 57.2% in test [5]; 20.5% in test [6]. For the same compound, the inhibition at 100 µM in test [7] was 47.4%; in [8], 26.6%; in [9], 14.8%.
Regarding `Nc1cnccc1NC(=O)c1ccc(CNC(=O)CCc2ccccc2)cc1` [V-49], the inhibition at 10 µM is -2.5% in test [1]; -9.5% in test [2]; 28.4% in test [3]; -6.1% in test [4]; 22.1% in [5]; 11% in test [6]. For the same compound, the inhibition at 10 µM in test [7] was determined as 2.3%; in test [8] it was 10.3%; in test [9], 28.3%. Moreover, the inhibition at 100 µM in [1] was determined as 33.8%; in [2], 39.9%; in [3], 93.7%; in test [4] it was 7.3%; in test [5], 71%; in test [6], 63.4%. Further, the inhibition at 100 µM in test [7] is 54.4%; in [8], 51.9%; in test [9], 53.8%.
Regarding `Cc1ccc(CCC(=O)NCc2ccc(C(=O)Nc3cccnc3N)cc2)cc1` [V-50, N-(2-amino-3-pyridyl)-4-[3-(4-methylphenyl)propionylaminomethyl]benzamide], the inhibition at 10 µM is 6.8% in test [1]; 8.6% in [2]; 8.9% in [3]; 10.2% in test [4]; 23.8% in test [5]; -0.5% in test [6]. The values for the inhibition at 10 µM in test [7], in test [8] and in [9] were 0.4%, 14.7% and 5.5%, respectively. In addition, the inhibition at 100 µM stood at 27.4% in test [1]; 14.2% in test [2]; 75.9% in [3]; 12.9% in test [4]; 75.7% in [5]; 23.5% in test [6]. Further, the values for the inhibition at 100 µM in [7], in [8] and in [9] were 46.9%, 36.9% and -3.8%, respectively.
Turning to `Cc1ccc(CCC(=O)NCc2ccc(C(=O)Nc3ccncc3N)cc2)cc1` [V-51], the inhibition at 10 µM in test [1] is -5.7%; in [2], -8.9%; in test [3], 14.8%; in [4], 1.4%; in test [5], -2.4%; in [6], 24.9%. The inhibition at 10 µM in test [7] is -0.5%; in test [8], 14.1%; in test [9], 21.4%. The inhibition at 100 µM is 7.9% in test [1]; -3.2% in test [2]; 42.4% in [3]; -6.1% in [4]; 53.5% in test [5]; 26.9% in test [6]. In addition, the inhibition at 100 µM in test [7] was 35.2%; in test [8], 31.3%; in test [9] it was 45%.
Take `COc1ccc(CCC(=O)NCc2ccc(C(=O)Nc3cccnc3N)cc2)cc1` [V-52, N-(2-amino-3-pyridyl)-4-[3-(4-methoxyphenyl)propionylaminomethyl]benzamide]: the inhibition at 10 µM in [1] was 8%; in [2], 9.8%; in [3], 7.6%; in test [4], 13.3%; in [5], 29%; in [6] it was 19%. Besides, the inhibition at 10 µM is 6.5% in test [7], 13.9% in test [8] and -7.4% in test [9]. The inhibition at 100 µM in test [1] was found to be 17.7%; in test [2], 9.9%; in test [3] it was 73.8%; in [4] it was 17.7%; in [5], 67.3%; in test [6], 78.6%. Moreover, the inhibition at 100 µM turned out to be 50.8% in test [7], 22.8% in [8] and 24.7% in test [9].
